Assay results published in patent US20220142995A1, “DUAL ATM AND DNA-PK INHIBITORS FOR USE IN ANTI-TUMOR THERAPY” (XRAD Therapeutics, Inc., priority 2019, published 2022).

Test system: TBK1
Experiment: Immunoblot of TBK1 phosphorylation in HCT116 cells (p53 wild-type or p53-/-)
Type: cell-based
Description: Cell Culture. The MCF-7 human breast carcinoma cell line and HCT116 p53 wild-type and HCT116 p53−/− cell lines were obtained from ATCC. […]
Immunoblotting. […] One hour after IR, cells were lysed in RIPA buffer ([…], pH 8.0, 150 mM NaCl, 0.1% SDS, 0.5% sodium deoxycholate, 1% IGEPAL® CA-630 (Sigma, 18896) for 20 min at 4° C. in the presence of protease and phosphatase inhibitor cocktails (Roche, #04693159001 & #04906837001). Cell lysates were centrifuged at 13,200 g for 10 min at 4° C. and supernatants were analyzed for protein content using BCA assay (Pierce™ BCA Protein Assay Kit, cat #23227, ThermoFisher Waltham, Mass. 02451) and equal amounts of protein/lane were used for subsequent immunoblot analyses. Proteins were denatured by adding NuPAGE LSD Sample Buffer [4×] […]

CC(C)NCCOc1ncc(-c2cc3c4c(cnc3cc2F)N(C)C(=O)C42CCC2)cc1NS(C)(=O)=O [Compound 569, N-(5-(7′-Fluoro-3′-methyl-2′-oxo-2′,3′-dihydrospiro[cyclobutane-1,1′-pyrrolo[2,3-c]quinolin]-8′-yl)-2-(2-(isopropylamino)ethoxy)pyridin-3-yl)methanesulfonamide]
induction of phosphorylation (activation) of TBK1 (HCT116 p53 wild-type or p53-/- cells, 569 1 μM, ATMi + DNA-PKi 0.5 or 1 micromolar each, 0 or 10 Gy): more potent activator of TBK1 phosphorylation than either of the single target kinase inhibitors | dependence of TBK1 activation on p53 status (HCT116 p53 wild-type vs p53-negative cells, 1 μM): independent of p53 status
